Measured values as given in the supplement of paper PMC10307832.

Experiments:
Assay in all cases: relative viability (nuclei count vs DMSO), 5 days (fraction); higher = more cells survive
[1] = compound: COCC[n+]1c2c(n(Cc3cnccn3)c1C)C(=O)c1ccccc1C2=O [YM155] + Cc1nc(NC(=O)N2CCC[C@H]2C(N)=O)sc1-c1ccnc(C(C)(C)C(F)(F)F)c1 [Alpelisib] (partner 2 µM)
Method in brief: (§1)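 Relative viability divides the nuclei count in treated wells by that in vehicle wells. Lung cancer cell lines were seeded in 1536-well plates, dosed by pin tool the next day, and fixed and stained after 5 days in one step with final 0.05% Triton X-100, 1% formaldehyde and 1 ug/ml Hoechst. Dosing was a single drug or a fixed anchor-drug dose plus five library-drug doses (not always all listed) in √10 steps, and values are medians of duplicate plates imaged at 4×.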

[2] = compound: COCC[n+]1c2c(n(Cc3cnccn3)c1C)C(=O)c1ccccc1C2=O [YM155] + O=C(CCCCCCC(=O)Nc1ccccc1)NO [Vorinostat] (partner 1 µM)
Method in brief: as §1

[3] = compound: COCC[n+]1c2c(n(Cc3cnccn3)c1C)C(=O)c1ccccc1C2=O [YM155] + C[C@]1(O)C[C@@H](c2nc(-c3ccc4ccc(-c5ccccc5)nc4c3)c3c(N)nccn32)C1 [Linsitinib] (partner 1 µM)
Method in brief: as §1

[4] = compound: COCC[n+]1c2c(n(Cc3cnccn3)c1C)C(=O)c1ccccc1C2=O [YM155] + COc1cccc2cc(-c3nc([C@H]4CC[C@H](C(=O)O)CC4)n4ncnc(N)c34)[nH]c12 [OSI-027] (partner 0.5 µM)
Method in brief: as §1

Cell Line	relative viability ([1]; first compound 0.002 µM)	relative viability ([1]; first compound 0.006325 µM)	relative viability ([1]; first compound 0.02 µM)	relative viability ([1]; first compound 0.06325 µM)	relative viability ([2]; first compound 0.002 µM)	relative viability ([2]; first compound 0.006325 µM)	relative viability ([2]; first compound 0.02 µM)	relative viability ([2]; first compound 0.06325 µM)	relative viability ([3]; first compound 0.002 µM)	relative viability ([3]; first compound 0.006325 µM)	relative viability ([3]; first compound 0.02 µM)	relative viability ([3]; first compound 0.06325 µM)	relative viability ([4]; first compound 0.002 µM)	relative viability ([4]; first compound 0.006325 µM)	relative viability ([4]; first compound 0.02 µM)	relative viability ([4]; first compound 0.06325 µM)
HOP-62	1.14	0.921	0.633	0.775	0.516	0.595	0.727	0.577	0.906	1.02	1.32	0.92	0.807	0.847	0.899	0.864
NCI-H1915	1.06	1.01	1.08	0.975	0.516	0.519	0.525	0.533	1.12	1.05	1.1	1.01	0.585	0.593	0.613	0.574
SW 1573	0.73	0.657	0.875	0.723	0.698	0.731	0.603	0.0728	0.88	0.939	0.769	0.686	0.549	0.705	0.406	0.0803
HCC-44	0.749	0.766	0.813	0.862	1.01	1.11	1.12	1.1	0.712	0.724	0.715	0.664	0.45	0.608	0.58	0.304
HARA	0.876	0.961	0.842	0.86	0.578	0.462	0.547	0.606	0.902	0.946	1.04	0.931	0.495	0.51	0.792	0.505
HCC-366	0.365	0.428	0.375	0.496	0.321	0.393	0.469	0.279	0.683	0.61	0.659	0.676	1.08	0.767	1.01	0.945
SK-MES-1	0.823	0.905	1.05	0.715	1	1.17	1.11	0.415	1.12	1.07	1.12	0.964	0.582	0.712	0.628	0.19
ABC-1	0.85	0.368	0.264	0.243	–	1.03	0.373	0.303	0.727	0.457	0.153	0.233	0.491	0.477	0.282	0.154
NCI-H358	0.801	0.871	0.911	0.283	0.641	0.643	0.86	0.106	0.708	0.689	0.778	0.253	0.684	0.981	0.887	0.552
HCC-15	0.96	0.826	0.927	0.879	0.851	0.836	0.872	0.881	0.809	0.627	0.872	0.798	0.693	0.758	0.721	0.534
NCI-H1666	0.822	–	1.11	0.844	0.923	1.11	1.03	1.03	0.88	–	1.01	0.578	0.767	0.911	0.859	0.841
EMC-BAC-2	0.735	0.723	0.729	0.719	0.428	0.452	0.606	0.256	0.85	0.83	0.597	0.818	0.388	0.364	0.374	0.382
NCI-H460	0.433	0.498	0.436	0.452	0.706	0.727	0.802	0.688	0.778	0.936	0.735	0.517	0.584	0.769	0.757	0.694
NCI-H2405	0.826	0.593	0.826	0.345	0.973	0.964	0.917	0.533	0.952	0.755	0.83	0.469	0.625	0.613	0.616	0.465
SK-LU-1	1.03	1.09	1.07	1.01	0.732	0.762	0.845	0.642	1.08	1.04	1.21	0.708	0.358	0.316	0.396	0.348
NCI-H1395	1.13	1.24	1.14	1.12	0.691	0.727	0.864	0.696	1.11	0.889	1.09	1.14	0.579	0.665	0.684	0.705
